{"source": "patent US20210205638A1", "about": "“PARATHYROID HORMONE AND REGENERATION OF DEGENERATIVE DISCS DISEASE” (THE JOHNS HOPKINS UNIVERSITY, priority 2017, published 2021)", "key": {"[1]": {"test_system": "NP cells", "assay": "pCREB immunostaining of IVD sections at time points after PTH treatment", "type": "in vivo, mouse", "experimental": "For immunocytochemical staining, we incubated GFP labeled NP cells co-stained with primary antibody to rabbit PTH1R PRB-635P (Covance, 1:100) for 1 h and subsequently stained with secondary antibodies conjugated with fluorescence at room temperature. At the time of euthanasia, we dissected and fixed the lumbar vertebral spine in 10% buffered formalin for 48 h, decalcified them in 10% EDTA (pH 7.4) for 14-21 days and embedded them in paraffin or optimal cutting temperature (OCT) compound (Sakura Finetek). Fourmicrometer-thick coronal-oriented sections of the L1-L6 spine were processed for safranin O and fast green staining. […] For immunofluorescent assay, the slides were incubated with secondary antibodies conjugated with fluorescence at room temperature for 1 h while avoiding light. […]\nQuantitative histomorphometric analysis was conducted in a blinded fashion with Image-Pro Plus Software version 6.0 (Media Cybernetics Inc). […] Five randomly selected sections per mice in each group at L3-L4 level were chosen for quantitative histomorphometric analysis. […] The percentage area of CCN2 and ACAN positive staining was calculated by measuring the positive area to the whole area of the L3-L4 in each group."}, "[2]": {"test_system": "PTH1R KO mice", "assay": "iPTH in PTH1R KO and PTH1R+/+ mice: PPCT IVD volume", "type": "in vivo, mouse", "experimental": "Mice carrying the PTH1R gene flanked by loxP sites (PTH1R^flox/flox) were mated with Noto^Cre mice to generate mice bearing Noto^Cre and a floxed PTH1R allele in their germline. These mice were backcrossed to homozygous floxed mice (Noto^Cre/+/PTH1R^flox/+::PTH1R^flox/flox) to generate mice with inactivation of both alleles in notochord derived cells (genotype Noto^+/+::PTH1R^flox/flox). […] The genotype of transgenic mice was determined by PCR analyses of genomic DNA isolated from mouse tails. […] The images were reconstructed and analyzed using the GPU-CT-Reconstruction software (applied by the BL13W1 experimental station) and the VG Studio Max 3D software (version 2.1, Volume Graphics GmbH, Germany) respectively. […] The 3D quantitative analysis of IVDs was performed with the commercially available Image Pro Analyzer 3D software (Version 7.0, Media Cybernetics, Inc., USA). The 3D structural parameters analyzed for the mean height and volume and thickness distribution of IVDs. The trabecular bone of L4 was segmented from the bone marrow and analyzed to determine the trabecular bone volume fraction (BV/TV), trabecular thickness (Tb. Th), trabecular number (Tb. N) and trabecular separation (Tb. Sp)."}}, "data": [{"compound": "CC[C@H](C)[C@H](NC(=O)[C@H](CCC(=O)O)NC(=O)[C@H](CO)NC(=O)[C@@H](NC(=O)[C@@H](N)CO)C(C)C)C(=O)N[C@@H](CCC(N)=O)C(=O)N[C@@H](CC(C)C)C(=O)N[C@@H](CCSC)C(=O)N[C@@H](Cc1cnc[nH]1)C(=O)N[C@@H](CC(N)=O)C(=O)N[C@@H](CC(C)C)C(=O)NCC(=O)N[C@@H](CCCCN)C(=O)N[C@@H](Cc1cnc[nH]1)C(=O)N[C@@H](CC(C)C)C(=O)N[C@@H](CC(N)=O)C(=O)N[C@@H](CO)C(=O)N[C@@H](CCSC)C(=O)N[C@@H](CCC(=O)O)C(=O)N[C@@H](CCCN=C(N)N)C(=O)N[C@H](C(=O)N[C@@H](CCC(=O)O)C(=O)N[C@@H](Cc1c[nH]c2ccccc12)C(=O)N[C@@H](CC(C)C)C(=O)N[C@@H](CCCN=C(N)N)C(=O)N[C@@H](CCCCN)C(=O)N[C@@H](CCCCN)C(=O)N[C@@H](CC(C)C)C(=O)N[C@@H](CCC(N)=O)C(=O)N[C@@H](CC(=O)O)C(=O)N[C@H](C(=O)N[C@@H](Cc1cnc[nH]1)C(=O)N[C@@H](CC(N)=O)C(=O)N[C@@H](Cc1ccccc1)C(=O)O)C(C)C)C(C)C", "note": "[PTH (1-34), teriparatide]", "values": [{"measurement": "time at which number of pCREB+ cells in NP area peaked", "setting": "[1]; after treatment", "result": 1, "unit": "hour"}, {"measurement": "number of pCREB+ cells in NP area", "setting": "[1]; at 30 minutes after treatment", "result": "increased"}, {"measurement": "increase of IVD volume by iPTH", "setting": "[2]; 12-month-old PTH1R KO mice", "result": "abolished"}, {"measurement": "IVD volume", "setting": "[2]; 12-month-old PTH1R+/+ mice", "result": "Increase"}]}]}
